In paper PMC6112376, “Comprehensive Analyses and Prioritization of Tox21 10K Chemicals Affecting Mitochondrial Function by in-Depth Mechanistic Studies” (Environmental Health Perspectives, 2018):
Where two headings read alike, the source gives them in different places.

Key:
[1] = system: isolated rat liver mitochondria; test: Oxygen consumption, Clark-type oxygen electrode; format: biochemical
hNSC = test: MMP assay in human neural stem cells (hNSC); format: cell-based; conditions: Homo sapiens, Neural stem cell, 1 h, read-out: hNSC IC50 (MMP)
[2] = system: Nrf2/ARE (ARE-bla HepG2 cells); test: ARE β-lactamase reporter gene assay; format: cell-based, human; conditions: Homo sapiens, HepG2; 16 h incubation; mean±SD of three experiments; read-out: ARE (HepG2) EC50
HepG2 cells [3] = test: cells; conditions: Homo sapiens; for IC50: HepG2, 1 h
HepG2 cells [4] = test: Intracellular ATP content (cell viability) assay; format: cell-based, human; conditions: Homo sapiens, HepG2, 40 h
rat primary hepatocytes [5] = system: rat primary hepatocytes
[6] = system: p53 (p53-bla HCT-116 cells); test: p53 β-lactamase reporter gene assay; format: cell-based, human; conditions: Homo sapiens; 16 h incubation; mean±SD of three experiments
rat primary hepatocytes [7] = test: MMP assay in rat primary hepatocytes; conditions: Rattus norvegicus, Hepatocyte
HepG2 cells [8] = test: ROS-Glo hydrogen peroxide (ROS) assay; format: cell-based, human
HepG2 cells [9] = conditions: cited from earlier work
[10] = system: Caenorhabditis elegans strain PE255; test: In vivo C. elegans ATP status assay; conditions: for minimal effective concentration: Caenorhabditis elegans, read-out: LEC LUM: lowest effect concentration for luminescence, a measure of nematode ATP content
[11] = system: Caenorhabditis elegans (Bristol N2); test: C. elegans larval development and growth assay; conditions: for minimal effective concentration: Caenorhabditis elegans, read-out: LEC EXT: lowest effect concentration for extinction, a measure of nematode size
[12] = system: HeLa cells expressing YFP-Parkin; test: Parkin translocation assay; format: cell-based, human
[13] = read-out: HepG2 IC50 Galactose (MMP)
[14] = read-out: HepG2 IC50 Glucose (MMP)
[15] = read-out: ATP (HepG2, galactose) IC50
[16] = read-out: ATP (HepG2, glucose) IC50
[17] = 1 h, read-out: Rat hepatocytes IC50 (MMP)

With `N#CC(c1ccc(Cl)cc1)c1c(Cl)cc(-n2ncc(=O)[nH]c2=O)cc1Cl` (centres unmarked) [Diclazuril, reference compound] the “I-ADP, % of control (O2 consumption rate)” value ([1]; 0.16 µM, glutamate/malate driven state 3 respiration, isolated rat liver mitochondria) was 96 (22.7) % of control, the “I-sub, % of control (O2 consumption rate)” value ([1]; 0.16 µM, glutamate/malate driven state 4 respiration, isolated rat liver mitochondria) was 174 (24.7) % of control and the “II-ADP, % of control (O2 consumption rate)” value (“II-ADP, % of control” for short) ([1]; 0.16 µM, succinate-driven state 3 respiration, isolated rat liver mitochondria) was 99 (32.7) % of control. For the same compound, the “II-sub, % of control (O2 consumption rate)” value (from here on “II-sub, % of control”) ([1]; 0.16 µM, succinate-driven state 4 respiration, isolated rat liver mitochondria) was 168 (35.8) % of control, the “I-ADP, % of control (O2 consumption rate)” value ([1]; 0.8 µM, glutamate/malate driven state 3 respiration, isolated rat liver mitochondria) was 95 (41.4) % of control and the “I-sub, % of control (O2 consumption rate)” value ([1]; 0.8 µM, glutamate/malate driven state 4 respiration, isolated rat liver mitochondria) was 290 (38.0) % of control. For the same compound, the “II-ADP, % of control” value ([1]; 0.8 µM, succinate-driven state 3 respiration, isolated rat liver mitochondria) was 88 (59.6) % of control, the “II-sub, % of control” value ([1]; 0.8 µM, succinate-driven state 4 respiration, isolated rat liver mitochondria) was 263 (54.9) % of control and the “I-ADP, % of control (O2 consumption rate)” value ([1]; 4 µM, glutamate/malate driven state 3 respiration, isolated rat liver mitochondria) was 45 (41.9) % of control. The “I-sub, % of control (O2 consumption rate)” value ([1]; 4 µM, glutamate/malate driven state 4 respiration, isolated rat liver mitochondria) was 115 (22.8) % of control, the “II-ADP, % of control” value ([1]; 4 µM, succinate-driven state 3 respiration, isolated rat liver mitochondria) was 55 (67.2) % of control and the “II-sub, % of control” value ([1]; 4 µM, succinate-driven state 4 respiration, isolated rat liver mitochondria) was 103 (35.2) % of control. For the same compound, the “I-ADP, % of control (O2 consumption rate)” value ([1]; 20 µM, glutamate/malate driven state 3 respiration, isolated rat liver mitochondria) was 95 (41.4) % of control, the “I-sub, % of control (O2 consumption rate)” value ([1]; 20 µM, glutamate/malate driven state 4 respiration, isolated rat liver mitochondria) was 124 (16.3) % of control and the “II-ADP, % of control” value ([1]; 20 µM, succinate-driven state 3 respiration, isolated rat liver mitochondria) was 101 (68.5) % of control. The “II-sub, % of control” value ([1]; 20 µM, succinate-driven state 4 respiration, isolated rat liver mitochondria) was 127 (26.6) % of control, the “I-ADP, % of control (O2 consumption rate)” value ([1]; 100 µM, glutamate/malate driven state 3 respiration, isolated rat liver mitochondria) was 94 (41.1) % of control and the “I-sub, % of control (O2 consumption rate)” value ([1]; 100 µM, glutamate/malate driven state 4 respiration, isolated rat liver mitochondria) was 115 (15.1) % of control. The “II-ADP, % of control” value ([1]; 100 µM, succinate-driven state 3 respiration, isolated rat liver mitochondria) was 101 (68.3) % of control, the “II-sub, % of control” value ([1]; 100 µM, succinate-driven state 4 respiration, isolated rat liver mitochondria) was 114 (23.8) % of control and the IC50 (hNSC) was 20.6 µM. It also gave an EC50 [2] of 10.9 µM, an IC50 (HepG2 cells [3]; [13]) of 46.3 µM and an IC50 (HepG2 cells [3]; [14]) of 38.3 µM. The Emax (HepG2 cells [3]; HepG2, read-out: MMP assays efficacy (%) HepG2) was 99%, the IC50 (HepG2 cells [4]; [15]) was 43.4 µM and the IC50 (HepG2 cells [4]; [16]) was 50.4 µM. The “MMP assays efficacy (%) Rat Hepatocytes” value (rat primary hepatocytes [5]) was -114±26%, the “Rat hepatocytes (efficacy) (MMP)” value (rat primary hepatocytes [5]) was 11.5±5.18 ( −72.8±2.37 ) % and the EC50 [6] was 27.9 ± 6.48 µM. The IC50 (rat primary hepatocytes [7]; [17]) was 11.5 µM, the IC50 (rat primary hepatocytes [7]; read-out: MMP assays IC50 (µM) Rat Hepatocytes) was 5.7 ± 1.94 µM and the “ROS (HepG2) EC50” value (HepG2 cells [8]) was “Inactive”. For the same compound, the “MMP assays efficacy (%) qHTS-HepG2” value (HepG2 cells [9]) was -108±7%, the IC50 (HepG2 cells [9]; read-out: MMP assays IC50 (µM) qHTS-HepG2) was 11.2 ± 2.79 µM and the “LEC (lowest effect concentration), ATP assay” value ([10]; 24 h exposure) was less than 10 µM. The minimal effective concentration [10] was 5 µM, the “LEC (lowest effect concentration), larval growth assay” value ([11]; 48 h exposure) was less than 10 µM and the minimal effective concentration [11] was 2.5 µM. For the same compound, the Parkin recruitment [12] was “Inactive”.

For `CCC(C)c1cc([N+](=O)[O-])cc([N+](=O)[O-])c1O` (centres unmarked) [Dinoseb], the “Potential Mechanism” value [1] was “Uncoupler at low concentrations (0.032-0.16 µM), and Uncoupler + inhibitor at high concentrations (0.8-100 µM)”, the “I-ADP, % of control (O2 consumption rate)” value ([1]; 0.0064 µM) was 89 (38.7) % of control and the “I-sub, % of control (O2 consumption rate)” value ([1]; 0.0064 µM) was 118 (15.5) % of control. The “II-ADP, % of control” value ([1]; 0.0064 µM) was 98 (66.3) % of control, the “II-sub, % of control” value ([1]; 0.0064 µM) was 122 (25.5) % of control and the “I-ADP, % of control (O2 consumption rate)” value ([1]; 0.032 µM) was 97 (42.2) % of control. The “I-sub, % of control (O2 consumption rate)” value ([1]; 0.032 µM) was 131 (17.2) % of control, the “II-ADP, % of control” value ([1]; 0.032 µM) was 92 (62.6) % of control and the “II-sub, % of control” value ([1]; 0.032 µM) was 137 (28.6) % of control. For the same compound, the “I-ADP, % of control (O2 consumption rate)” value ([1]; 0.16 µM) was 106 (46.2) % of control, the “I-sub, % of control (O2 consumption rate)” value ([1]; 0.16 µM) was 181 (23.7) % of control and the “II-ADP, % of control” value ([1]; 0.16 µM) was 98 (66.1) % of control. The “II-sub, % of control” value ([1]; 0.16 µM) was 199 (41.5) % of control, the “I-ADP, % of control (O2 consumption rate)” value ([1]; 0.8 µM) was 138 (59.9) % of control and the “I-sub, % of control (O2 consumption rate)” value ([1]; 0.8 µM) was 423 (55.4) % of control. The “II-ADP, % of control” value ([1]; 0.8 µM) was 59 (40.0) % of control, the “II-sub, % of control” value ([1]; 0.8 µM) was 193 (40.3) % of control and the “I-ADP, % of control (O2 consumption rate)” value ([1]; 4 µM) was 111 (48.1) % of control. For the same compound, the “I-sub, % of control (O2 consumption rate)” value ([1]; 4 µM) was 347 (45.5) % of control, the “II-ADP, % of control” value ([1]; 4 µM) was 28 (19.1) % of control and the “II-sub, % of control” value ([1]; 4 µM) was 96 (20.0) % of control. For the same compound, the “I-ADP, % of control (O2 consumption rate)” value ([1]; 20 µM) was 70 (30.6) % of control, the “I-sub, % of control (O2 consumption rate)” value ([1]; 20 µM) was 242 (31.7) % of control and the “II-ADP, % of control” value ([1]; 20 µM) was 18 (12.1) % of control. The “II-sub, % of control” value ([1]; 20 µM) was 64 (13.3) % of control, the “I-ADP, % of control (O2 consumption rate)” value ([1]; 100 µM) was 13 (6.5) % of control and the “I-sub, % of control (O2 consumption rate)” value ([1]; 100 µM) was 33 (7.1) % of control. The “II-ADP, % of control” value ([1]; 100 µM) was 12 (6.9) % of control, the “II-sub, % of control” value ([1]; 100 µM) was 22 (7.8) % of control and the IC50 (hNSC) was 22.3 µM. For the same compound, the EC50 [2] was 0.76 ± 0.13 µM, the IC50 (HepG2 cells [3]; [13]) was 16.5 µM and the IC50 (HepG2 cells [3]; [14]) was 12.4 µM. For the same compound, the IC50 (HepG2 cells [4]; [15]) was 32.6 µM, the IC50 (HepG2 cells [4]; [16]) was 36.8 µM and the “Rat hepatocytes (efficacy) (MMP)” value (rat primary hepatocytes [5]) was 4.50±0.81 ( −130±39.0 ) %. The EC50 [6] was 2.63 ± 1.78 µM, the IC50 (rat primary hepatocytes [7]; [17]) was 4.5 µM and the EC50 (HepG2 cells [8]; Homo sapiens, HepG2, 2 h, read-out: ROS (HepG2) EC50) was 27.6 µM. For the same compound, the “LUM: mean difference in luminescence (ATP content) relative to plate controls” value ([10]; 0.5 µM) was 0.1603, the “LUM: mean difference in luminescence (ATP content) relative to plate controls” value ([10]; 1 µM) was 0.2694 and the “LUM: mean difference in luminescence (ATP content) relative to plate controls” value ([10]; 5 µM) was 0.2298. The “LUM: mean difference in luminescence (ATP content) relative to plate controls” value ([10]; 10 µM) was 0.4579, the “LUM: mean difference in luminescence (ATP content) relative to plate controls” value ([10]; 25 µM) was 0.5745 and the “LUM: mean difference in luminescence (ATP content) relative to plate controls” value ([10]; 50 µM) was 0.9424. For the same compound, the “LUM: mean difference in luminescence (ATP content) relative to plate controls” value ([10]; 75 µM) was 1.122, the “LUM: mean difference in luminescence (ATP content) relative to plate controls” value ([10]; 100 µM) was 1.3353 and the minimal effective concentration [10] was 50 µM. For the same compound, the “EXT: mean difference in nematode size relative to plate controls” value ([11]; 0.5 µM) was -0.01247, the “EXT: mean difference in nematode size relative to plate controls” value ([11]; 1 µM) was -0.02122 and the “EXT: mean difference in nematode size relative to plate controls” value ([11]; 5 µM) was -0.00308. The “EXT: mean difference in nematode size relative to plate controls” value ([11]; 10 µM) was 0.1196, the “EXT: mean difference in nematode size relative to plate controls” value ([11]; 25 µM) was 0.1256 and the “EXT: mean difference in nematode size relative to plate controls” value ([11]; 50 µM) was 0.4169. For the same compound, the “EXT: mean difference in nematode size relative to plate controls” value ([11]; 75 µM) was 0.7162, the “EXT: mean difference in nematode size relative to plate controls” value ([11]; 100 µM) was 0.9301 and the minimal effective concentration [11] was 50 µM. For the same compound, the Parkin recruitment [12] was “Active”.
